Blank lines part the entries; values can stand above or below the compound they belong to. Residues, ends and D or L forms follow the SMILES beside them.
Tests used:
[1] = system: aggregated platelets induced by ADP; test: Platelet disaggregation rate of blood samples with ADP-induced platelet aggregation (hematology analyzer, PLT_O)
Experimental: The compounds in Table 1 above were respectively added to a diluent used for a hematology analyzer to prepare blood sample diluents. […] Each of the compounds in Table 1 (at a final concentration 0.01 mol/L) was added to the diluent separately, pH was adjusted to 14, and the osmotic pressure was adjusted to 200 mOsm/L to obtain the treatment solution.
The venous blood of a healthy subject was collected into blood anticoagulant tubes for later use. Two aliquot blood samples (1 ml/sample) were taken. The above-mentioned diluent was added to one of the samples, the resulting solution was mixed evenly, and then the platelet count was detected in a hematology analyzer (Mindray BC-6000Plus) and recorded as: PLT_O (unaggregated). The platelet aggregation inducer ADP (at a final concentration of 0.01 mmol/L) was added to the other sample, and the resulting solution was mixed evenly. Platelets were aggregated 5 min later, at this time the above-mentioned diluent was added, and then the blood containing the aggregated platelets was detected by the hematology analyzer to obtain the platelet count, which was recorded as: PLT_O (aggregated). Another 1 ml of blood sample was taken, the platelet aggregation inducer ADP (at a final concentration of 0.01 mmol/L) was added, and the resulting solution was mixed evenly. The above-mentioned treatment solution was added 5 min later, the resulting solution was mixed evenly, and then the platelet count of the treated blood was detected by the hematology analyzer and was recorded as: PLT_O (disaggregated).

[2] = pKa of the amino group of the compound
Excerpt: For the compound having a plurality of amino groups/imino groups, the pKa of amino group described herein refers to the first dissociation constant, that is, pKa of amino group or imino group which firstly dissociates hydrogen ion.

[3] = Table 3, method of Example 1 (0.01 mol/L, pH 14, ADP 0.01 mmol/L)
[4] = Table 4, pH 8.18, method of Example 1
[5] = Table 4, pH 9.96, method of Example 1
[6] = Table 5, pH 9.5, method of Example 1
[7] = Table 2, compound 0.01 mol/L, pH 14, ADP 0.01 mmol/L
[8] = Table 4, pH 9.14, method of Example 1
[9] = FIG. 13, 10 mmol/L, pH 9.5, ADP 0.01 mmol/L
[10] = Table 4, pH 5.75, method of Example 1
[11] = Table 4, pH 10.64, method of Example 1
[12] = Table 4, pH 10.8, method of Example 1

Compound: 1,3-diaminopropane
- Platelet disaggregation rate [1, 3]: 91.14%
- pKa ([2]; Table 3): 10.4

- pKa ([2]; Table 4): 7.93
Compound: 2-aminoacetamide
- Platelet disaggregation rate [1, 4]: 64.57%

Compound: 3-amino-1-propanol
- Platelet disaggregation rate [1, 5]: 81.43%

- pKa ([2]; pKa, Table 3): 5.5
Compound: Nc1cc(N)cc(N)c1 [1,3,5-triaminobenzene]
- Platelet disaggregation rate [1, 3]: 72.44%

- pKa ([2]; Table 3): 9.68
Compound: NCC(O)CN [1,3-diamino-2-propanol]
- Platelet disaggregation rate [1, 3]: 93.78%

- pKa ([2]; pKa, Table 3): 5.17
Compound: Nc1ccc(N)c(S(=O)(=O)O)c1 [2,5-diaminobenzene-sulfonic acid]
- Platelet disaggregation rate [1, 3]: 62.44%

- pKa ([2]; pKa, Table 3): 9.59
- pKa ([2]; pKa, Table 5): 9.6
Compound: NCC(CN)CN [2-(aminomethyl)-propane-1,3-diamine]
- Platelet disaggregation rate [1, 3]: 96.43%
- disaggregation rate [1, 6]: 97.46%

- pKa ([2]; pKa, Table 3): 7.02
Compound: CNC(CC(N)=O)C(N)=O (stereo not drawn) [2-(methylamino) succinamide]
- Platelet disaggregation rate [1, 3]: 74.43%

Compound: CNCCO [2-(methylamino)ethanol]
- Platelet disaggregation rate [1, 7]: 82.49%%

- pKa ([2]; pKa, Table 4): 8.18
Compound: CC(N)C(N)=O (stereo not drawn) [2-aminopropanamide]
- Platelet disaggregation rate [1, 4]: 62.65%

Compound: CNCc1ccc(O)cc1 [4-[(methylamino)methyl]phenol]
- Platelet disaggregation rate [1, 7]: 59.43%

- pKa ([2]; pKa, Table 4): 10.3
Compound: NCCCCO [4-amino-1-butanol]
- Platelet disaggregation rate [1, 5]: 74.45%

- pKa ([2]; pKa, Table 4): 10.4
Compound: NCCCC(=O)O [4-aminobutyric acid]

Compound: Nc1ccc(O)cc1 [4-aminophenol]
- Platelet disaggregation rate [1, 7]: 67.73%
- Platelet disaggregation rate [1, 8]: 67.37%
- pKa [2]: 5.5

Compound: CCCCc1ccc(O)cc1 [4-butylphenol, reference compound]
- Platelet disaggregation rate [1, 7]: 9.43%

- pKa ([2]; pKa, Table 4): 9.14
Compound: NCc1ccc(O)cc1 [4-hydroxybenzylamine]
- Platelet disaggregation rate [1, 8]: 51.43%

Compound: N.N.O=P(O)(O)O [(NH4)2HPO4, ammonium hydrogen phosphate]
- disaggregation effect [1, 9]: 99.25%

Compound: N.N.N.O=P(O)(O)O [(NH4)3PO4, ammonium phosphate]
- disaggregation effect [1, 9]: 94.87%

Compound: Br.N [NH4Br, ammonium bromide]
- disaggregation effect [1, 9]: 93.48%

Compound: N.N.O=C(O)C(=O)O [NH4C2O4, ammonium oxalate]
- disaggregation effect [1, 9]: 87.67%

Compound: N.O=P(O)(O)O [NH4H2PO4, ammonium dihydrogen phosphate]
- disaggregation effect [1, 9]: 86.24%

Compound: I.N [NH4I, ammonium iodide]
- disaggregation effect [1, 9]: 92.75%

Compound: N.O [NH4OH, ammonia water]
- disaggregation effect [1, 9]: 83.05%

Compound: N.N#CS [NH4SCN, ammonium thiocyanate]
- disaggregation effect [1, 9]: 85.78%

Compound: [Cl-].[Na+] [NaCl, reference compound]
- disaggregation effect [1, 9]: 18.90%

Compound: CC=O [acetaldehyde, reference compound]
- Platelet disaggregation rate [1, 7]: 16.54%

Compound: CC(N)=O [acetamide]
- Platelet disaggregation rate [1, 7]: 64.57%
- Platelet disaggregation rate [1, 3]: 44.44%

Compound: CC(=O)O [acetate, reference compound]
- Platelet disaggregation rate [1, 7]: 11.75%

Compound: CC(=O)CC(C)=O [acetylacetone, reference compound]
- Platelet disaggregation rate [1, 7]: 8.45%

- pKa ([2]; pKa, Table 4): 5.75
Compound: NCS(=O)(=O)O [aminomethanesulfonic acid]
- Platelet disaggregation rate [1, 10]: 52.44%

Compound: Cl.N [ammonium chloride]
- disaggregation effect [1, 9]: 95.70%
- disaggregation effect ([1]; FIG. 14, 50 mmol/L (total for combination, equal parts), ADP 0.1 mmol/L): 66.27%
- disaggregation rate ([1]; Table 6, 0.01 mol/L, pH 4.0): 18.62%
- disaggregation rate ([1]; Table 6, 0.01 mol/L, pH 5.5): 31.70%
- disaggregation rate ([1]; Table 6, 0.01 mol/L, pH 6.5): 59.61%
- disaggregation rate ([1]; Table 6, 0.01 mol/L, pH 7.5): 94.05%
- disaggregation rate ([1]; Table 6, 0.01 mol/L, pH 8.5): 94.62%
- disaggregation rate ([1]; Table 6, 0.01 mol/L, pH 9.5): 95.70%
- disaggregation rate ([1]; Table 6, 0.01 mol/L, pH 11.0): 97.72%

Compound: Nc1ccccc1 [aniline]
- Platelet disaggregation rate [1, 3]: 56.26%

Compound: N=C(N)NCCC[C@H](N)C(=O)O [arginine]
- disaggregation rate [1, 6]: 62.64%
- pKa ([2]; pKa, Table 5): 9

Compound: O=S(=O)(O)c1ccccc1 [benzenesulfonic acid, reference compound]
- Platelet disaggregation rate [1, 7]: 13.77%

- pKa ([2]; pKa, Table 3): 13.2
Compound: N=C(N)NC(=N)N [biguanide]
- Platelet disaggregation rate [1, 3]: 97.54%

Compound: CCCCN [butylamine]
- Platelet disaggregation rate [1, 3]: 87.53%
- Platelet disaggregation rate [1, 11]: 84.34%

Compound: CCCC(=O)O [butyric acid, reference compound]
- Platelet disaggregation rate [1, 7]: 11.45%

Compound: CC(=O)NC(C)=O [diacetamide]
- Platelet disaggregation rate [1, 7]: 75.43%

Compound: CCS(=O)(=O)O [ethanesulfonic acid, reference compound]
- Platelet disaggregation rate [1, 7]: 16.54%

Compound: CCO [ethanol, reference compound]
- Platelet disaggregation rate [1, 7]: 14.46%

Compound: NCCO [ethanolamine]
- Platelet disaggregation rate [1, 7]: 91.45%
- Platelet disaggregation rate [1, 3]: 86.45%
- Platelet disaggregation rate [1, 5]: 88.45%

Compound: C=O [formaldehyde, reference compound]
- Platelet disaggregation rate [1, 7]: 13.85%

- pKa [2]: 9.6
- pKa ([2]; Table 5): 9.6
Compound: N[C@@H](CCC(=O)O)C(=O)O [glutamic acid]
- disaggregation rate [1, 6]: 63.24%

Compound: NC(=O)CCC(N)C(=O)O (stereo not drawn) [glutamine]
- Platelet disaggregation rate [1, 4]: 59.25%

Compound: NCC(=O)NCC(=O)O [gly-gly] (H-Gly-Gly-OH)
- disaggregation rate [1, 6]: 57.29%
- pKa [2]: 9.6

Compound: NCC(=O)O [glycine]
- Platelet disaggregation rate [1, 7]: 65.47%
- Platelet disaggregation rate [1, 3]: 65.47%
- disaggregation rate [1, 6]: 70.47%

- pKa [2]: 13.17
Compound: N=C(N)N [guanidine]
- Platelet disaggregation rate [1, 7]: 84.35%
- Platelet disaggregation rate [1, 3]: 84.35%

- pKa ([2]; pKa, Table 3): 11
Compound: NCCCCC(N)C(=O)NC(CCCCN)C(=O)O (stereo not drawn) [lys-lys]
- Platelet disaggregation rate [1, 3]: 85.75%

Compound: NCCCCC(N)C(=O)O (stereo not drawn) [lysine]
- Platelet disaggregation rate [1, 3]: 70.49%
- pKa ([2]; pKa, Example 4): 10.7
- pKa ([2]; pKa, Table 3): 10.8

- pKa ([2]; pKa): 4.67
Compound: Nc1cccc(N)c1 [m-phenylenediamine]
- Platelet disaggregation rate [1, 3]: 66.83%

Compound: CCCN [n-propylamine]
- Platelet disaggregation rate [1, 11]: 85.53%

Compound: Oc1ccccc1 [phenol, reference compound]
- Platelet disaggregation rate [1, 7]: 8.44%

Compound: OCN(CO)C(CO)(CO)CO [reference compound]
- disaggregation rate [1, 6]: 24.0%
- pKa [2]: 6.5

Compound: CNCC(=O)O [sarcosine]
- Platelet disaggregation rate [1, 7]: 64.75%

- pKa [2]: 1.19
Compound: NS(=O)(=O)O [sulfamic acid]
- Platelet disaggregation rate [1, 10]: 64.54%

- pKa ([2]; pKa, Example 4): 10.1
- pKa ([2]; pKa, Table 3): 3.32
Compound: Nc1ccc(S(=O)(=O)O)cc1 [sulfanilic acid]
- Platelet disaggregation rate [1, 7]: 55.15%
- Platelet disaggregation rate [1, 3]: 55.15%

- pKa ([2]; pKa, Table 4): 9.12
Compound: NCCS(=O)(=O)O [taurine]
- Platelet disaggregation rate [1, 10]: 46.25%

Compound: CC(=O)O.NC(CO)(CO)CO [tris(hydroxymethyl)aminomethane acetate]
- disaggregation rate [1, 6]: 75.23%

- pKa ([2]; pKa, Table 4): 10.6
Compound: NCCc1ccc(O)cc1 [tyramine]
- Platelet disaggregation rate [1, 8]: 48.44%

- pKa ([2]; pKa, Table 4): 10.8
Compound: N=C(N)NCC(=O)O [{[amino(imino)methyl]amino}-acetic acid]
- Platelet disaggregation rate [1, 12]: 94.02%

Compound: aminoguanidine
- Platelet disaggregation rate [1, 3]: 92.35%
- pKa ([2]; Table 3): 11.04

Compound: butanol [reference compound]
- Platelet disaggregation rate [1, 7]: 13.14%

Compound: ethylamine
- Platelet disaggregation rate [1, 11]: 83.32%
- pKa ([2]; Table 4): 10.67

- pKa [2]: 13.2
Compound: methyl guanidine
- Platelet disaggregation rate [1, 12]: 86.36%

Compound: tris(hydroxymethyl)aminomethane
- disaggregation rate [1, 6]: 97.32%
- pKa ([2]; Table 5): 8.1

— patent publication US20230152304A1 (SHENZHEN MINDRAY BIO-MEDICAL ELECTRONICS CO., LTD., priority 2020, published 2023)
